From patent US12485132B2, “GPX4 inhibitors and senolytic compounds and uses thereof” (Rubedo Life Sciences, Inc., priority 2023, dated 2025)
pIC50: −log10 of the molar value.

Legend:
GPX4 [1] = biological target: T1, GPX4 (Mus musculus, UniProt O70325); test: Electrophoretic gel mobility shift of GPX4 in skin of treated mice (target engagement); format: in vivo; details: skin of BALB/c mice exposed to mitomycin C; 24 hr treatment
T1 construct: tissue Charles River Laboratories; host or cells: skin of BALB/c mice
T1 sequence (O70325 whole entry): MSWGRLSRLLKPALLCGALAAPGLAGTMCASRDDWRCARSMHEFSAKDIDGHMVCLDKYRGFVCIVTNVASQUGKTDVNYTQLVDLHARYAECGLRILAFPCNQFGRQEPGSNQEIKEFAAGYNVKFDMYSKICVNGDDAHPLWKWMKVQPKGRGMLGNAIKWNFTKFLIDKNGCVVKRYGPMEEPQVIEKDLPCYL
Protocol: An electrophoretic gel mobility shift assay of GPX4 was applied to determine the level of target engagement of compound 32 as a direct biomarker in tissues. For example, target engagement of compound 32 was assessed in the skin of mice exposed to mitomycin C, a potent inducer of cellular senescence. Following 24 hr treatment with compound 32, the skin of treated BALB/c mice (Charles River Laboratories) was collected and lysed by IGEPAL CA-630 and sodium dodecyl sulfate (SDS) in the presence of a protease inhibitor cocktail (4693132001, Roche) and benzonase (E1014, Sigma-Aldrich). The soluble protein fraction was isolated and heat-denatured in the presence of dithiothreitol (DTT). Proteins were electrophoretically separated using a Bis-Tris protein gel with 12% polyacrylamide concentration. Following the transfer of proteins to a PVDF membrane, the membrane was probed with an anti-GPX4 monoclonal antibody (ab125066, Abcam) and anti-beta-Actin (4970, Cell Signaling Technology), followed by an anti-rabbit IgG HRP conjugated antibody (31460, ThermoFisher). Chemiluminescent following HRP substrate addition (34580, ThermoFisher) was detected by the ChemiDoc XRS+System (BioRad).

senescent A549 cells = test: Senescence assay: viability of senescent A549 cells; format: cell-based; details: Homo sapiens, 24-72 hours incubation, viability by CellTiter-Glo or XTT, read-out: Absolute IC50 average A549_SEN IC50
Method in brief: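 A549 and HEPG2 cells made senescent by sublethal chemotherapy (bleomycin, gemcitabine, doxorubicin or 5-fluorouridine) plus recovery, verified by low EdU and high SA-β-Gal. Ten-point duplicate dosing for 24-72 h; viability by CellTiter-Glo or XTT versus untreated cells; absolute IC50 from four-parameter Hill fit.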

GPX4 [2] = biological target: T2, GPX4 (Homo sapiens, UniProt P36969); test: Competitive binding to GPX4 in A549 cells with biotinylated analog, streptavidin pull-down; format: cell-based; design: host or cells: A549; details: 2 μM for 2 hours before 2 μM compound 21 for 5 hours
T2 sequence (P36969 1-197): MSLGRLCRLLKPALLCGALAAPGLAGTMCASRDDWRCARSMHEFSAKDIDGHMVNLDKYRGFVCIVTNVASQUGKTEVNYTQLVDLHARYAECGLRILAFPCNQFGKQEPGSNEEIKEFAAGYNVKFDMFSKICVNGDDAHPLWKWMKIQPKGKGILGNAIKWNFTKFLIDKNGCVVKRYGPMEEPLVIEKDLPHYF
Protocol: Binding of compounds 32 and 69 to the target protein GPX4 in cultured cells can be assessed by the use of biotinylated analogs such as compound 21 that retain their cellular activities. Cells or tissue simultaneously or sequentially exposed to compounds 32 and 69 and biotinylated analog 21 can be analyzed for exogenous biotinylated proteins and thereby enables the identification of cellular targets of compounds 32 and 69. The A549 cancer cell line (ATCC) was exposed to 2 μM of compounds 32 and 69 for 2 hours followed by the addition of 2 μM of compound 21 for 5 hours. Cells were collected and lysed by IGEPAL CA-630 and sodium dodecyl sulfate (SDS) in the presence of a protease inhibitor cocktail (4693132001, Roche). The soluble protein fraction was isolated and incubated with Streptavidin Mag Sepharose (28-9857-38, Cytiva) at 4° C. for 16 hours. The streptavidin-unbound fraction was collected allowing for the quantification of the proportion of GPX4 depleted by the biotinylated compound 21 relative to samples not treated with Streptavidin Mag Sepharose. Furthermore, biotinylated proteins were eluted from Streptavidin Mag Sepharose by head-denaturation in the presence of excess biotin (5 mM). […] Chemiluminescent following HRP substrate addition (34580, ThermoFisher) was detected by the ChemiDoc XRS+ System (Bio-Rad). […]

A549 cells = test: Lipid peroxidation assay by flow cytometry (BODIPY 581/591 C11); format: cell-based, human; details: 0.02, 0.2 and 2 μm, 18.5 hours
Protocol: Inhibition of the cellular activity of GPX4 can be estimated by changes in lipid peroxidation levels that can be detected by the oxidation of BODIPY 581/591 C11, a ratiometric fluorescent indicator reacting with free radicals produced during membrane peroxidation (Drummen et al., Free Radic Biol Med 2002 33 (4): 473-90; and Martinez et al., Methods Mol Biol 2020 2018:125-130). For a lipid peroxidation assay by flow cytometry, A549 cells were seeded at 333,000 cells per well in 12-well plates. On the following day, culture media was replaced with 1 mL media containing either DMSO or compound 32 (0.02, 0.2 and 2 μm), and cultures were incubated at 37° C. for 18.5 hours. Thirty minutes before the end of the incubation period, 2 μm BODIPY 581/591 C11 (D3861, Invitrogen) was added to cells. Following cell collection by trypsinization, cells were subjected to flow cytometry analysis (BD FACSAria), and gated for the live cell population, which was analyzed for fluorescence signal associated with the oxidized state of BODIPY 581/591 C11. The results are illustrated in FIG. 4.

C#CC(F)(F)[C@]1(O)CC[C@H]2[C@@H]3CCC4=CC(=NNC(=O)NC5CC5)CCC4=C3[C@H](c3ccc(C4CC4)cc3)C[C@@]21C [Compound 32, N-cyclopropyl-2-((8S,11S,13S,14S,17S)-11-(4-cyclopropylphenyl)-17-(1,1-difluoroprop-2-yn-1-yl)-17-hydroxy-13-methyl-1,2,6,7,8,11,12,13,14,15,16,17-dodecahydro-3H-cyclopenta[a]phenanthren-3-ylidene)hydrazine-1-carboxamide]
GPX4 band shift in skin (target engagement) (GPX4 [1]): slower migrating band for GPX4 was observed
pIC50 (senescent A549 cells): 8.00 to 10.00
effect of pre-treatment on compound 21 dependent depletion of GPX4 protein (GPX4 [2]): reduces the compound 21 dependent depletion of GPX4 protein
cellular lipid peroxidation (oxidized BODIPY 581/591 C11 signal) (A549 cells): induced markers of cellular lipid peroxidation
